Source: US9433228B2, “Method for the production of multiple-unsaturated fatty acids in transgenic organisms” (BASF Plant Science GmbH, priority 2003, dated 2016)
Like-named read-outs stand apart in the source and are kept apart here.

Legend:
ELO(XI) = ELO(XI) expressed in yeast, conversion of starting materials; format: cell-based, Xenopus laevis; settings: fed at in each case 250 μM
Method: Thereafter, the FAMEs were analyzed via GLC.

ELO(Ci) = ELO(Ci) expressed in yeast, conversion of starting materials; format: cell-based, Ciona intestinalis; settings: fed at in each case 250 μM
Method: (holding). […] Biochem. […] Thereafter, the FAMEs were analyzed via GLC.

PtELO6 (Δ6-elongase) = assay: PtELO6 expressed in yeast, feeding experiment; settings: for conversion of fatty acid fed: fed to yeast with pYES2-PtELO6; for % Elongation: fatty acid added at 250 μm
Method: The PCR products were incubated for 30 minutes at 21° C. with the yeast expression vector pYES2.1-TOPO (Invitrogen) following the manufacturer's instructions. The PCR product (see SEQ ID NO: 192) was ligated into the vector by means of a T-overhang and the activity of a topoisomerase (Invitrogen). After the incubation, E. coli DH5α cells were transformed. Suitable clones were identified by PCR, the plasmid DNA was isolated by means of the Qiagen DNAeasy kit and verified by sequencing. The correct sequence was then transformed into the Saccharomyces strain INVSc1 (Invitrogen) by electroporation (1500 V). As a control, the blank vector pYES2.1 was transformed in parallel. Thereafter, the yeasts were plated of minimal dropout uracil medium supplemented with 2% glucose. Cells which were capable of growing in the medium without uracil thus comprise the corresponding plasmids pYES2.1 and pYES2.1-PtELO6. After the selection, in each case two transformants were chosen for the further functional expression.
The yeast cells from the main cultures were harvested by centrifugation (100×g, 5 min, 20° C.) and washed with 100 mM NaHCO3, pH 8.0 to remove residual medium and fatty acids. Starting with the yeast cell sediments, fatty acid methyl esters (FAMEs) were prepared by acid methanolysis. To this end, the cell sediments were incubated for one hour at 80° C. together with 2 ml of 1 N methanolic sulfuric acid and 2% (v/v) of dimethoxypropane. The FAMEs were extracted twice with petroleum ether (PE). To remove nonderivatized fatty acids, the organic phases were washed in each case once with 2 ml of 100 mM NaHCO3, pH 8.0 and 2 ml of distilled water. Thereafter, the PE phases were dried with Na2SO4, evaporated under argon and taken up in 100 μl of PE. The samples were separated on a DB-23 capillary column (30 m, 0.25 mm, 0.25 μm, Agilent) in a Hewlett-Packard 6850 gas chromatograph equipped with flame ionization detector. The conditions for the GLC analysis were as follows: the oven temperature was programmed from 50° C. to 250° C. with a rate of 5° C./min and finally 10 min at 250° C. (holding).
The signals were identified by comparing the retention times with corresponding fatty acid standards (Sigma).
Feeding experiment: fatty acids (in bold) were added at in each case 250 μm.
The yeasts which had been transformed with the vector pYES2-PtELO6 were grown in minimal medium in the presence of the fatty acids stated. The fatty acid methyl esters were synthesized by subjecting intact cells to acid methanolysis. Thereafter, the FAMEs were analyzed via GLC.

TL16y2 = TL16y2 expressed in yeast, feeding experiments; format: cell-based, Thraustochytrium ssp.; settings: in comparison with the control
Method: The substrate specificity of BioTaurELO1 was determined after expression and feeding of various fatty acids (FIG. 6). […] After the fatty acids had been extracted from the yeasts, they were transmethylated and separated by gas chromatography. The elongation products obtained from the two fatty acids which had been fed are identified by arrows.
The functionality and substrate specificity of TL16y2 was determined after expression and feeding of various fatty acids. […] The feeding experiments were carried-out in the same manner as described for BioTaurELO1. The substrates fed can be detected in large amounts in all transgenic yeasts. […] This means that functional expression of the gene TL16y2 has been possible.

OtElo2 (Δ6-elongase) = format: cell-based, Ostreococcus tauri
OtElo2.1 (Δ6-elongase) = format: cell-based, Ostreococcus tauri
TpELO3 (Δ6-elongase) = format: cell-based, Thalassiosira pseudonana
[1] = test system: Δ6-desaturase OtDes6.1, Δ6-elongase PSE1 and Δ5-desaturase PtD5; assay: Reconstitution of ARA and EPA pathways in yeast: OtDes6.1 with PSE1 and PtD5; format: cell-based, Saccharomyces cerevisiae; settings: for elongation by Δ6-elongase PSE1 to DHGLA and DHSTA: products of OtDes6.1 from LA and ALA (FIG. 21)
Description: The subsequent desaturation by the Δ5-desaturase PtD5 to give ARA and EPA, respectively, is also problem-free. Approximately 25-30% of the elongase product is desaturated (FIGS. 21 B and D).

[2] = test system: OmElo3, EgD4 and P. tricornutum Δ5-desaturase (PtD5); assay: Reconstitution of DHA synthesis in yeast: coexpression of OmElo3, EgD4 and PtD5; format: cell-based, Saccharomyces cerevisiae; settings: fed 18:4 ω3
Method: The reconstitution of the biosynthesis of DHA (22:6 ω3) was carried out starting from EPA (20:5 ω3) or stearidonic acid (18:4 ω3) by coexpressing OmElo3 together with the Euglena gracilis Δ4-desaturase or the Phaeodactylum tricomutum Δ5-desaturase and the Euglena gracilis Δ4-desaturase. To this end, the expression vectors pYes2-EgD4 and pESCLeu-PtD5 were additionally constructed. The abovementioned yeast strain which is already transformed with pYes3-OtElo3 (SEQ ID NO: 55), was transformed further with pYes2-EgD4, or simultaneously with pYes2-EgD4 and pESCLeu-PtD5. […] The cultures were incubated for a further 120 hours at 15° C.
In a further coexpression experiment, OmElo3, EgD4 and a P. tricornutum Δ5-desaturase (PtD5) were expressed together. The transgenic yeasts were fed stearidonic acid (18:4 ω3) and they were analyzed (FIG. 4). The fatty acid fed, 18:4 ω3, was elongated by OmElo3 to give 20:4 ω3 (60% elongation). The latter was desaturated by PtD5 to give 20:5 ω3. The PtD5 activity was 15%. Moreover, it was possible to elongate 20:5 ω3 by OmElo3 to give 22:5 ω3. Thereafter, the newly synthesized 22:5 ω3 was desaturated to 22:6 ω3 (DHA). Up to 0.7% of DHA was obtained in these experiments.

OtElo1 (Δ5-elongase) = format: cell-based, Ostreococcus tauri; settings: Table 15; yeast with pOTE1
OtElo1.2 (Δ5-elongase) = format: cell-based, Ostreococcus tauri; settings: Table 15; yeast with pOTE1.2
TpELO1 (Δ5-elongase) = assay: TpELO1 expressed in yeast, feeding experiments; settings: 250 μM fatty acid fed
Method: The PCR products were incubated for 30 minutes at −21° C. with the yeast expression vector pYES2.1-TOPO (Invitrogen) following the manufacturer's instructions. The PCR product was ligated into the vector by means of a T-overhang and the activity of a topoisomerase (Invitrogen). After the incubation, E. coli DH5α cells were transformed. Suitable clones were identified by PCR, the plasmid DNA was isolated by means of the Qiagen DNAeasy kit and verified by sequencing. The correct sequence was then transformed into the Saccharomyces strain INVSc1 (Invitrogen) by electroporation (1500 V). As a control, the blank vector pYES2.1 was transformed in parallel. Thereafter, the yeasts were plated out on minimal dropout uracil medium supplemented with 2% glucose. Cells which were capable of growing in the medium without uracil thus comprise the corresponding plasmids pYES2.1, pYES2.1-TpELO1, pYES2.1-ELO2 and pYES2.1-TpELO3. After the selection, in each case two transformants were chosen for the further functional expression.
The yeast cells from the main cultures were harvested by centrifugation (100×g, 5 min, 20° C.) and washed with 100 mM NaHCO3, pH 8.0 to remove residual medium and fatty acids. […]
The yeasts which had been transformed with the vector pYES2-TpELO1 were grown in minimal medium in the presence of the fatty acids stated. […] Thereafter the FAMEs were analyzed by GLC.

OmElo3 = OmElo3 expressed in yeast, feeding of fatty acids, GC of FAMEs; format: cell-based, Oncorhynchus mykiss; settings: yeast with pYes3-OmElo3 and blank vector pYes2, fed 20:5 ω3
OmELO2 = OmELO2 expressed in yeast, feeding of fatty acids; format: cell-based, Oncorhynchus mykiss; settings: expression in yeast
At3g06470 = At3g06470 expressed in yeast, elongation of EPA; settings: feeding with 250 uM EPA
Description: (§1) To characterize the function of the A. thaliana desaturases, the open reading frame of the DNA in question is cloned downstream of the galactose-inducible GALL promoter of pYES2.1/V5-His-TOPO (Invitrogen), giving rise to the corresponding pAt60 and pAt70 clones.
(§2) The Saccharomyces cerevisiae strain 334 is transformed with the vectors pAt60 and pAt70, respectively by electroporation (1500 V). A yeast which is transformed with the blank vector pYES2.1 is used for control purposes. The transformed yeasts are selected on complete minimal medium (CMdum) agar plates supplemented with 2% glucose, but lacking uracil. After the selection, in each case three transformants are chosen for the further functional expression.
(§3) To express the At elongases, precultures of in each case 5 ml of CMdum liquid medium supplemented with 2% (w/v) raffinose, but without uracil, were inoculated with the selected transformants and incubated for 2 hours at 30° C., 200 rpm.
(§4) 5 ml of CMdum liquid medium (without uracil) supplemented with 2% of raffinose and 300 μM various fatty acids were then inoculated with the precultures to an OD600 of 0.05. Expression was induced by the addition of 2% (w/v) galactose. The cultures were incubated for a further 96 hours at 20° C. […]

At3g06460 = At3g06460 expressed in yeast, elongation of EPA; settings: feeding with 250 uM EPA
Description: as §1, §2, §3, §4

CCCCCCCCCCCCCCCC(=O)O [16:0, palmitic acid]
Conversion of the starting materials by ELO(XI) in % (ELO(XI)): 3%
Conversion of the starting materials by ELO(Ci) in % (ELO(Ci)): 0%

CCCCCCCCCCCCCCCCCC(=O)O [18:0, stearic acid]
Conversion of the starting materials by ELO(XI) in % (ELO(XI)): 2%
Conversion of the starting materials by ELO(Ci) in % (ELO(Ci)): 0%

CCCCCCC=CCCCCCCCCCC(=O)O [18:1^Δ11]
conversion of fatty acid fed (PtELO6 (Δ6-elongase)): not converted

CCCCC/C=C\C/C=C\CCCCCCCC(=O)O [18:2^Δ9,12, linoleic acid]
% Elongation (PtELO6 (Δ6-elongase)): 0.99%

CCCCC/C=C\C/C=C\CC/C=C\CCCC(=O)O [18:3^Δ5,9,12, pinolenic acid]
Conversion of the starting materials by ELO(XI) in % (ELO(XI)): 13%
Conversion of the starting materials by ELO(Ci) in % (ELO(Ci)): 38%

CCCCC/C=C\C/C=C\C/C=C\CCCCC(=O)O [18:3^Δ6,9,12, γ-linolenic acid]
% conversion rate (TL16y2; 250 μM fatty acid fed): 74.9%
Conversion rate (in %) OtElo2 (OtElo2 (Δ6-elongase)): 15.3%
Conversion rate (in %) OtELO2.1 (OtElo2.1 (Δ6-elongase)): 55.7%
% conversion rate (TpELO3 (Δ6-elongase)): 75%
elongation by Δ6-elongase PSE1 to DHGLA and DHSTA [1]: elongated almost quantitatively

CC/C=C\C/C=C\C/C=C\C/C=C\CCCCC(=O)O [18:4^Δ6,9,12,15, stearidonic acid]
elongation by OmElo3 to 20:4 ω3 [2]: 60%
% conversion rate (TL16y2; 250 μM fatty acid fed): 79.4%
Conversion rate (in %) OtElo2 (OtElo2 (Δ6-elongase); Table 16, yeast with pOTE2): 21.1%
Conversion rate (in %) OtELO2.1 (OtElo2.1 (Δ6-elongase); Table 16, yeast with pOTE2.1): 70.4%
% conversion rate (TpELO3 (Δ6-elongase); 250 μM of each fatty acid fed): 85%
elongation by Δ6-elongase PSE1 to DHGLA and DHSTA [1]: elongated almost quantitatively
% Elongation (PtELO6 (Δ6-elongase)): 76.32%

CCCCC/C=C\C/C=C\C/C=C\CCCCCCC(=O)O [20:3^Δ8,11,14, dihomo-γ-linolenic acid]
Conversion of the starting materials by ELO(XI) in % (ELO(XI)): 5%
Conversion of the starting materials by ELO(Ci) in % (ELO(Ci)): 10%
conversion of fatty acid fed (PtELO6 (Δ6-elongase)): not converted

CC/C=C\C/C=C\C/C=C\CCCCCCCCCC(=O)O [20:3^Δ11,14,17]
Conversion of the starting materials by ELO(Ci) in % (ELO(Ci)): 8%
conversion of fatty acid fed (PtELO6 (Δ6-elongase)): not converted

CCCCC/C=C\C/C=C\C/C=C\C/C=C\CCCC(=O)O [20:4^Δ5,8,11,14, arachidonic acid]
% conversion rate (TL16y2; 250 μM fatty acid fed): 20.3%
Conversion rate (in %) OtElo1 (OtElo1 (Δ5-elongase)): 10.8 ± 0.6%
Conversion rate (in %) OtElo1.2 (OtElo1.2 (Δ5-elongase)): 38.0%
% conversion rate (TpELO3 (Δ6-elongase); 250 μM of each fatty acid fed): 0%
Conversion of the starting materials by ELO(XI) in % (ELO(XI)): 15%
Conversion of the starting materials by ELO(Ci) in % (ELO(Ci)): 10%
% conversion rate (TpELO1 (Δ5-elongase)): 1.7%

CC/C=C\C/C=C\C/C=C\C/C=C\C/C=C\CCCC(=O)O [20:5^Δ5,8,11,14,17, eicosapentaenoic acid]
elongation of 20:5 ω3 to 22:5 ω3 (OmElo3): 65%
% conversion rate (TL16y2; 50 μM fatty acid fed): 41%
% conversion rate (TL16y2; 250 μM fatty acid fed): 8%
Conversion rate (in %) OtElo1 (OtElo1 (Δ5-elongase)): 46.8 ± 3.6%
Conversion rate (in %) OtElo1.2 (OtElo1.2 (Δ5-elongase)): 68.6%
% conversion rate (TpELO3 (Δ6-elongase); 250 μM of each fatty acid fed): 0%
% conversion rate (TpELO1 (Δ5-elongase)): 12.2%

CCCCCC=CCC=CCC=CCC=CCCCCCC(=O)O [22:4^Δ7,10,13,16, docosatetraenoic acid]
Conversion of the starting materials by ELO(XI) in % (ELO(XI)): 0%
Conversion of the starting materials by ELO(Ci) in % (ELO(Ci)): 0%
conversion of fatty acid fed (PtELO6 (Δ6-elongase)): not converted

eicosadienoic acid [20:2^Δ11,14]
conversion of fatty acid fed (PtELO6 (Δ6-elongase)): not converted

B1: OmELO2: Oncorhynchus mykiss elongase gene product, SEQ ID NO: 51 (protein)
chain: MASTWQSVQSMRQWILENGDKRTDPWLLVYSPMPVAIIFLLYLGVVWAGPKLMKRREPVDLKAVLIVYNFAMVCLSVYMFHEFLVTSLLSNYSYLCQPVDYSTSPLAMRMAKVCWWFFFSKVIELADTVFFILRKKNSQLTFLHVYHHGTMIFNWWAGVKYLAGGQSFFIGLLNTFVHIVMYSYYGLAALGPHTQKYLWWKRYLTSLQLLQFVLLTTHTGYNLFTECDFPDSMNAVVFAYCVSLIALFSNFYYQSYLNRKSKKT
modifications: Oncorhynchus mykiss; CDS (1)..(795) delta5-elongase
elongase activity (OmELO2): no elongase activity

B2: At3g06470: Arabidopsis thaliana elongase, SEQ ID NO: 137 (protein, listed as Arabidopsis thaliana)
chain: MASIYSSLTYWLVNHPYISNFTWIEGETLGSTVFFVSVVVSVYLSATFLLRSAIDSLPSLSPRILKPITAVHSLILCLLSLVMAVGCTLSITSSHASSDPMARFLHAICFPVDVKPNGPLFFWAQVFYLSKILEFGDTILIILGKSIQRLSFLHVYHHATVVVMCYLWLRTRQSMFPIALVTNSTVHVIMYGYYFLCAVGSRPKWKRLVTDCQIVQFVFSFGLSGWMLREHLFGSGCTGIWGWCFNAAFNASLLALFSNFHSKNYVKKPTREDGKKSD
modifications: CDS (1)..(837) delta5-elongase
Conversion rate of EPA (At3g06470): At3g06470: 4.1%

B3: PtD5: Phaeodactylum tricornutum Δ5-desaturase, SEQ ID NO: 5 (protein, listed as Phaeodactylum tricornutum)
chain: MAPDADKLRQRQTTAVAKHNAATISTQERLCSLSSLKGEEVCIDGIIYDLQSFDHPGGETIKMFGGNDVTVQYKMIHPYHTEKHLEKMKRVGKVTDFVCEYKFDTEFEREIKREVFKIVRRGKDFGTLGWFFRAFCYIAIFFYLQYHWVTTGTSWLLAVAYGISQAMIGMNVQHDANHGATSKRPWVNDMLGLGADFIGGSKWLWQEQHWTHHAYTNHAEMDPDSFGAEPMLLFNDYPLDHPARTWLHRFQAFFYMPVLAGYWLSAVFNPQILDLQQRGALSVGIRLDNAFIHSRRKYAVFWRAVYIAVNVIAPFYTNSGLEWSWRVFGNIMLMGVAESLALAVLFSLSHNFESADRDPTAPLKKTGEPVDWFKTQVETSCTYGGFLSGCFTGGLNFQVEHHLFPRMSSAWYPYIAPKVREICAKHGVHYAYYPWIHQNFLSTVRYMHAAGTGANWRQMARENPLTGRA
modifications: CDS (1)..(1410) delta5-desaturase
PtD5 activity (desaturation of 20:4 ω3 to 20:5 ω3) [2]: 15%
share of the elongase product desaturated by Δ5-desaturase PtD5 ([1]; to ARA and EPA (FIGS. 21 B and D)): 25-30%

B4: At3g06460: Arabidopsis thaliana elongase, SEQ ID NO: 135 (protein, listed as Arabidopsis thaliana)
chain: MASVYSTLTYWLVHHPYIANFTWTEGETLGSTVFFVFVVVSLYLSATFLLRYTVDSLPTLGPRILKPITAVHSLILFLLSLTMAVGCTLSLISSSDPKARLFDAVCFPLDVKPKGPLFFWAQVFYLSKILEFVDTLLIILNKSIQRLSFLHVYHHATVVILCYLWLRTRQSMFPVGLVLNSTVHVIMYGYYFLCAIGSRPKWKKLVTNFQMVQFAFGMGLGAAWMLPEHYFGSGCAGIWTVYFNGVFTASLLALFYNFHSKNYEKTTTSPLYKIESFIFIHGERWANKAITLFSKKND
modifications: CDS (1)..(897) delta5-elongase
Conversion rate of EPA (At3g06460): At3g06460: 3.0%
